{"source": "ChEMBL document CHEMBL4043093", "about": "“2-Oxo-3, 4-dihydropyrimido[4, 5-d]pyrimidinyl derivatives as new irreversible pan fibroblast growth factor receptor (FGFR) inhibitors” (Eur J Med Chem, 2017)", "key": {"[1]": {"target": "Mitotic checkpoint serine/threonine-protein kinase BUB1 (Homo sapiens) (UniProt O43683)", "sequence (O43683 whole entry, looked up, the tested form may be a part)": "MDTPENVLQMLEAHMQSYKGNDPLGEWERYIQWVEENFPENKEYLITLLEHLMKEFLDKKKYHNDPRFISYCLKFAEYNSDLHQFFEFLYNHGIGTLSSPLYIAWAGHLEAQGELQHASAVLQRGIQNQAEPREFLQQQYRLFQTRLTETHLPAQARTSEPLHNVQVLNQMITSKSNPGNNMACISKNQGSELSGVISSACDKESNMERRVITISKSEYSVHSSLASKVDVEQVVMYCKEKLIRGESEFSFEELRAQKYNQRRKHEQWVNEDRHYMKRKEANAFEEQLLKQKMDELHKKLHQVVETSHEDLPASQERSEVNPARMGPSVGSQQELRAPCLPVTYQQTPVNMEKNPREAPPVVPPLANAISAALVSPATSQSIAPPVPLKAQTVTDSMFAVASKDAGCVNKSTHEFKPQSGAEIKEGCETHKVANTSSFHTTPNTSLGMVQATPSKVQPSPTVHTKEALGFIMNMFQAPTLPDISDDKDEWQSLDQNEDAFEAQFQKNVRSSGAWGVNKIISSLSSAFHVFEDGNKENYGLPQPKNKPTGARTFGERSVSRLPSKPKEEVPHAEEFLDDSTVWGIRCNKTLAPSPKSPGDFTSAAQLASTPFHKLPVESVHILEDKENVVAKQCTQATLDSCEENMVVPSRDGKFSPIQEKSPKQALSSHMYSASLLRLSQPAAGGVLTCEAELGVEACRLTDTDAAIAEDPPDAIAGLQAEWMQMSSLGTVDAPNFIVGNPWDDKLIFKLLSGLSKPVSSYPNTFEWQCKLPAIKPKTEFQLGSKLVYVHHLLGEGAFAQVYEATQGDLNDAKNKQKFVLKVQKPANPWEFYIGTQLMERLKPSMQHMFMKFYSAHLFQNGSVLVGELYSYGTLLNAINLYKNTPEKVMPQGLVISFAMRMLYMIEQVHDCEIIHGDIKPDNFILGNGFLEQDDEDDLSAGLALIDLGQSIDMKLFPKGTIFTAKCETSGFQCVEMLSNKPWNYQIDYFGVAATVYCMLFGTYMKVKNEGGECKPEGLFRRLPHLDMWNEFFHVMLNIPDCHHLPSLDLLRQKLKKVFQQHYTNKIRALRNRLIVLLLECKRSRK", "assay": "Inhibition of wild-type human partial length BUB1 (Q724 to K1085 residues) expressed in HEK293 cells assessed as residual activity at 1000 nM after 30 mins by Kinomescan method relative to control", "type": "cell-based"}, "[2]": {"target": "Mitogen-activated protein kinase kinase kinase 2 (Homo sapiens) (UniProt Q9Y2U5)", "sequence (Q9Y2U5 whole entry, the tested form may be a part)": "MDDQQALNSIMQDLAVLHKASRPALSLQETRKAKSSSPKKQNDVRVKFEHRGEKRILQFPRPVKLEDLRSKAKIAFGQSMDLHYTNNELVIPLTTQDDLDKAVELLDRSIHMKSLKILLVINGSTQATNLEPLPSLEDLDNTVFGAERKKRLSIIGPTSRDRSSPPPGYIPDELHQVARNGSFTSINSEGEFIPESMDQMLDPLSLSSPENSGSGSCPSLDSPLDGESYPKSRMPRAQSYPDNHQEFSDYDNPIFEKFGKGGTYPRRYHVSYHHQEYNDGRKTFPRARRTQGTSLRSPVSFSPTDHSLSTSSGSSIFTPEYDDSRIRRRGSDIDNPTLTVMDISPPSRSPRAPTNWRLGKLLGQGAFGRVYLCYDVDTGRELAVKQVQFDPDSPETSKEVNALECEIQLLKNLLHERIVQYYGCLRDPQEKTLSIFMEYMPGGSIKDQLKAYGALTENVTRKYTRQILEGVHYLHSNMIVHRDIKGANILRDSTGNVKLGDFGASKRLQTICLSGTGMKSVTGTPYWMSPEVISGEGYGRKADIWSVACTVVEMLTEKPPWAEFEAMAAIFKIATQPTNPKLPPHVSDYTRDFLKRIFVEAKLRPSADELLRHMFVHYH", "assay": "Inhibition of wild-type human partial length MAP3K2 (S315 to H619 residues) expressed in HEK293 cells assessed as residual activity at 1000 nM after 30 mins by Kinomescan method relative to control", "type": "cell-based"}, "[3]": {"target": "Focal adhesion kinase 1 (Homo sapiens) (UniProt Q05397)", "sequence (Q05397 2-1052 limits assumed)": "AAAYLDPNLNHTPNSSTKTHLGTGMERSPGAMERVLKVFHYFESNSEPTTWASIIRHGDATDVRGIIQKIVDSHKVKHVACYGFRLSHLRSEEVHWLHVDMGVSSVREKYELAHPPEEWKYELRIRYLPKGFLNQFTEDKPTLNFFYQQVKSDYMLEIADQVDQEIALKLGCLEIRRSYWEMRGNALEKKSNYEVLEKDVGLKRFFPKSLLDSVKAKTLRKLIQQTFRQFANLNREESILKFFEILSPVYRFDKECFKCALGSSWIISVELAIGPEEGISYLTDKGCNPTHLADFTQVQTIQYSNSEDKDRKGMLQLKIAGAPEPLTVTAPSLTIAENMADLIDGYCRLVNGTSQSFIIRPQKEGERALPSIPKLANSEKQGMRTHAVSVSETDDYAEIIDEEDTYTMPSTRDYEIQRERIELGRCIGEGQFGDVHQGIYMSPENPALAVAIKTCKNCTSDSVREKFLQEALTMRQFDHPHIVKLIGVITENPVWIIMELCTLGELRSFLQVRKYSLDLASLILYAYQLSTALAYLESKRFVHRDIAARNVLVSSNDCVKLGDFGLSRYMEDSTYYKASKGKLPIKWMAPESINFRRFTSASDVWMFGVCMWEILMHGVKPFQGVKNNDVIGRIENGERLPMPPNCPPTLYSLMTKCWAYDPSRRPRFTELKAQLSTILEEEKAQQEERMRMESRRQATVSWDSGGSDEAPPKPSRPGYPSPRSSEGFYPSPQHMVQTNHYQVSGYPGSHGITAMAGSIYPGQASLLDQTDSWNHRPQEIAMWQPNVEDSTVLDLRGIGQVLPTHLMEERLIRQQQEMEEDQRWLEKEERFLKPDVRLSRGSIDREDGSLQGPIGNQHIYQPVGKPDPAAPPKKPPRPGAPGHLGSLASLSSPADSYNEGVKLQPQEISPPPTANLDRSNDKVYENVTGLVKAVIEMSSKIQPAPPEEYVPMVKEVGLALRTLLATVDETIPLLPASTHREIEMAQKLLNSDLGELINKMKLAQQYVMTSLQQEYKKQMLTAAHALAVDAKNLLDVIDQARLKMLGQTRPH", "assay": "Inhibition of wild-type human partial length FAK (D402 to R696 residues) expressed in Escherichia coli BL21 assessed as residual activity at 1000 nM after 30 mins by Kinomescan method relative to control"}}, "data": [{"molecule": "COc1cc(OC)c(Cl)c(N2Cc3cnc(Nc4ccc(F)cc4)nc3N(C3CCN(C(=O)/C=C/CN(C)C)CC3)C2=O)c1Cl", "values": [{"measurement": "Activity", "setting": "[1]", "result": 100, "unit": "%"}, {"measurement": "Activity", "setting": "[2]", "result": 0.8, "unit": "%"}, {"measurement": "Activity", "setting": "[3]", "result": 78, "unit": "%"}]}]}
